Converted amounts (≈) assume the structure as drawn.
Columns and labels:
[1] = Selectivity index, ratio of IC50 for cytotoxicity against human HaCaT cells to IC50 for cytotoxicity against human A549 cells; format: toxicity, cell-based; conditions: HaCaT cells versus A549 cells, read-out: Ratio IC50
PC-3 = assay: Cytotoxicity against human PC-3 cells incubated for 72 hrs by MTT assay; format: functional, cell-based; conditions: PC-3, 72 h
[2] = system: Staphylococcus epidermidis; assay: Antimicrobial activity against Staphylococcus epidermidis ATCC 35984 incubated for 18 hrs by twofold microdilution method; format: functional
[3] = Selectivity index, ratio of IC50 for cytotoxicity against chinese hamster V79 cells to IC50 for cytotoxicity against human MDA-MB-231 cells; format: toxicity, cell-based; conditions: V79 cells versus MDA-MB-231 cells, read-out: Ratio IC50
[4] = Selectivity index, ratio of IC50 for cytotoxicity against human HaCaT cells to IC50 for cytotoxicity against human SW480 cells; format: toxicity, cell-based; conditions: HaCaT cells versus SW480 cells, read-out: Ratio IC50
[5] = Selectivity index, ratio of IC50 for cytotoxicity against human HaCaT cells to IC50 for cytotoxicity against human MDA-MB-231 cells; format: toxicity, cell-based; conditions: HaCaT cells versus MDA-MB-231 cells, read-out: Ratio IC50
A549 = assay: Cytotoxicity against human A549 cells incubated for 72 hrs by MTT assay; format: functional, cell-based; conditions: A549, 72 h
[6] = Selectivity index, ratio of IC50 for cytotoxicity against chinese hamster V79 cells to IC50 for cytotoxicity against human A549 cells; format: toxicity, cell-based; conditions: V79 cells versus A549 cells, read-out: Ratio IC50
[7] = Selectivity index, ratio of IC50 for cytotoxicity against chinese hamster V79 cells to IC50 for cytotoxicity against human SW620 cells; format: toxicity, cell-based; conditions: V79 cells versus SW620 cells, read-out: Ratio IC50
[8] = Selectivity index, ratio of IC50 for cytotoxicity against chinese hamster V79 cells to IC50 for cytotoxicity against human SW480 cells; format: toxicity, cell-based; conditions: V79 cells versus SW480 cells, read-out: Ratio IC50
[9] = Selectivity index, ratio of IC50 for cytotoxicity against chinese hamster V79 cells to IC50 for cytotoxicity against human PC-3 cells; format: toxicity, cell-based; conditions: V79 cells versus PC-3 cells, read-out: Ratio IC50
Staphylococcus aureus [10] = assay: Antimicrobial activity against Staphylococcus aureus ATCC 29213 incubated for 18 hrs by twofold microdilution method; format: functional
Staphylococcus aureus [11] = assay: Antimicrobial activity against Staphylococcus aureus ATCC 6538 incubated for 18 hrs by twofold microdilution method; format: functional
[12] = Cytotoxicity against chinese hamster V79 cells incubated for 72 hrs by MTT assay; format: toxicity, cell-based, Cricetulus griseus
Staphylococcus aureus [13] = assay: Antimicrobial activity against Staphylococcus aureus ATCC 25923 incubated for 18 hrs by twofold microdilution method; format: functional
MDA-MB-231 = assay: Cytotoxicity against human MDA-MB-231 cells incubated for 72 hrs by MTT assay; format: functional, cell-based; conditions: MDA-MB-231, 72 h
SW-620 = assay: Cytotoxicity against human SW620 cells incubated for 72 hrs by MTT assay; format: functional, cell-based; conditions: SW-620, 72 h
Pseudomonas aeruginosa = assay: Antimicrobial activity against Pseudomonas aeruginosa ATCC 15442 incubated for 18 hrs by twofold microdilution method; format: functional
[14] = Selectivity index, ratio of IC50 for cytotoxicity against human HaCaT cells to IC50 for cytotoxicity against human PC-3 cells; format: toxicity, cell-based; conditions: HaCaT cells versus PC-3 cells, read-out: Ratio IC50
Staphylococcus aureus [15] = assay: Antimicrobial activity against Staphylococcus aureus NCTC 4163 incubated for 18 hrs by twofold microdilution method; format: functional
[16] = Selectivity index, ratio of IC50 for cytotoxicity against human HaCaT cells to IC50 for cytotoxicity against human SW620 cells; format: toxicity, cell-based; conditions: HaCaT cells versus SW620 cells, read-out: Ratio IC50
Escherichia coli = assay: Antimicrobial activity against Escherichia coli ATCC 25922 incubated for 18 hrs by twofold microdilution method; format: functional
[17] = Cytotoxicity against human HaCaT cells incubated for 72 hrs by MTT assay; format: toxicity, cell-based
[18] = system: Staphylococcus epidermidis; assay: Antimicrobial activity against Staphylococcus epidermidis ATCC 12228 incubated for 18 hrs by twofold microdilution method; format: functional
SW480 = assay: Cytotoxicity against human SW480 cells incubated for 72 hrs by MTT assay; format: functional, cell-based; conditions: SW480, 72 h

Row | SMILES | selectivity ratio [1] | IC50 (PC-3) | MIC [2] | selectivity ratio [3] | selectivity ratio [4] | selectivity ratio [5] | IC50 (A549) | selectivity ratio [6] | selectivity ratio [7] | selectivity ratio [8] | selectivity ratio [9] | MIC (Staphylococcus aureus [10]) | MIC (Staphylococcus aureus [11]) | IC50 at 72 h [12] | MIC (Staphylococcus aureus [13]) | IC50 (MDA-MB-231) | IC50 (SW-620) | MIC (Pseudomonas aeruginosa) | MIC (Escherichia coli) | MIC [18] | also measured
1 | CC[C@@H](C(=O)[C@@H](C)[C@@H](O)[C@H](C)[C@@H]1O[C@@H]([C@@H](CC)C(=O)OCCCCCC[P+](c2ccccc2)(c2ccccc2)c2ccc(N(C)C)cc2)CC[C@@H]1C)[C@H]1O[C@]2(C=C[C@@H](O)[C@]3(CC[C@@](C)([C@H]4CC[C@](O)(CC)[C@H](C)O4)O3)O2)[C@H](C)C[C@@H]1C.[Br-] | 0.8 | 1470 nM | 8 µg/mL | 0.7 | 1.2 | 0.8 | 850 nM | 0.7 | 0.8 | 1 | 0.4 | 8 µg/mL | 8 µg/mL | 600 nM | 8 µg/mL | 880 nM | 710 nM | > 256 µg/mL | > 256 µg/mL | 8 µg/mL | selectivity ratio [14]: 0.5; MIC (Staphylococcus aureus [15]): 8 µg/mL; selectivity ratio [16]: 1; IC50 at 72 h [17]: 710 nM; IC50 (SW480): 580 nM
2 | CC[C@@H](C(=O)[C@@H](C)[C@@H](O)[C@H](C)[C@@H]1O[C@@H]([C@@H](CC)C(=O)OCCCC[P+](c2ccccc2OC)(c2ccccc2OC)c2ccccc2OC)CC[C@@H]1C)[C@H]1O[C@]2(C=C[C@@H](O)[C@]3(CC[C@@](C)([C@H]4CC[C@](O)(CC)[C@H](C)O4)O3)O2)[C@H](C)C[C@@H]1C.[Br-] | 1.3 | 880 nM | 2 µg/mL | 0.9 | 1.7 | 1.3 | 700 nM | 0.9 | 0.5 | 1.1 | 0.7 | 2 µg/mL | 2 µg/mL | 640 nM | 2 µg/mL | 740 nM | 1250 nM | 256 µg/mL | 256 µg/mL | 2 µg/mL | selectivity ratio [14]: 1.1; MIC (Staphylococcus aureus [15]): 2 µg/mL; selectivity ratio [16]: 0.8; IC50 at 72 h [17]: 940 nM; IC50 (SW480): 560 nM
3 | CCCC[P+](CCCC)(CCCC)CCCCCCOC(=O)[C@H](CC)[C@H]1CC[C@H](C)[C@H]([C@@H](C)[C@H](O)[C@H](C)C(=O)[C@H](CC)[C@H]2O[C@]3(C=C[C@@H](O)[C@]4(CC[C@@](C)([C@H]5CC[C@](O)(CC)[C@H](C)O5)O4)O3)[C@H](C)C[C@@H]2C)O1.[Br-] | 0.6 | 2890 nM | 2 µg/mL | 0.6 | 1.2 | 0.6 | 1050 nM | 0.6 | 1 | 1.3 | 0.2 | 2 µg/mL | 2 µg/mL | 650 nM | 2 µg/mL | 1020 nM | 670 nM | > 256 µg/mL | > 256 µg/mL | 2 µg/mL | selectivity ratio [14]: 0.2; MIC (Staphylococcus aureus [15]): 2 µg/mL; selectivity ratio [16]: 0.9; IC50 at 72 h [17]: 620 nM; IC50 (SW480): 500 nM
4 | CC[C@@H](C(=O)[C@@H](C)[C@@H](O)[C@H](C)[C@@H]1O[C@@H]([C@@H](CC)C(=O)OCCCC[P+](c2ccc(OC)cc2)(c2ccc(OC)cc2)c2ccc(OC)cc2)CC[C@@H]1C)[C@H]1O[C@]2(C=C[C@@H](O)[C@]3(CC[C@@](C)([C@H]4CC[C@](O)(CC)[C@H](C)O4)O3)O2)[C@H](C)C[C@@H]1C.[Br-] | 1.7 | 2240 nM | 8 µg/mL | 0.5 | 1.5 | 0.8 | 660 nM | 1 | 0.5 | 0.9 | 0.3 | 64 µg/mL | 4 µg/mL | 670 nM | 4 µg/mL | 1420 nM | 1280 nM | > 256 µg/mL | > 256 µg/mL | 16 µg/mL | selectivity ratio [14]: 0.5; MIC (Staphylococcus aureus [15]): 4 µg/mL; selectivity ratio [16]: 0.9; IC50 at 72 h [17]: 1120 nM; IC50 (SW480): 730 nM
5 | CC[C@@H](C(=O)[C@@H](C)[C@@H](O)[C@H](C)[C@@H]1O[C@@H]([C@@H](CC)C(=O)OCCCCCC[P+](c2ccc(C)cc2)(c2ccc(C)cc2)c2ccc(C)cc2)CC[C@@H]1C)[C@H]1O[C@]2(C=C[C@@H](O)[C@]3(CC[C@@](C)([C@H]4CC[C@](O)(CC)[C@H](C)O4)O3)O2)[C@H](C)C[C@@H]1C.[Br-] | 1.1 | 1580 nM | 16 µg/mL | 0.8 | 1.7 | 1.3 | 980 nM | 0.7 | 0.9 | 1.1 | 0.4 | 8 µg/mL | 8 µg/mL | 670 nM | 16 µg/mL | 830 nM | 720 nM | > 256 µg/mL | > 256 µg/mL | 16 µg/mL | selectivity ratio [14]: 0.7; MIC (Staphylococcus aureus [15]): 8 µg/mL; selectivity ratio [16]: 1.5; IC50 at 72 h [17]: 1050 nM; IC50 (SW480): 610 nM
6 | O=C(O)c1cn(C2CC2)c2cc(N3CCNCC3)c(F)cc2c1=O [CIPROFLOXACIN] |  |  | 0.125 µg/mL (≈ 0.377 µM) |  |  |  |  |  |  |  |  | 0.25 µg/mL (≈ 0.754 µM) |  |  | 0.25 µg/mL (≈ 0.754 µM) |  |  |  | 0.007 µg/mL (≈ 0.0211 µM) | 0.125 µg/mL (≈ 0.377 µM) | 
7 | CC[C@@H](C(=O)[C@@H](C)[C@@H](O)[C@H](C)[C@@H]1O[C@@H]([C@@H](CC)C(=O)OCCCCCC[P+](c2ccccc2)(c2ccccc2)c2ccccc2)CC[C@@H]1C)[C@H]1O[C@]2(C=C[C@@H](O)[C@]3(CC[C@@](C)([C@H]4CC[C@](O)(CC)[C@H](C)O4)O3)O2)[C@H](C)C[C@@H]1C.[Br-] | 1.1 | 1850 nM | 2 µg/mL | 0.2 | 1.1 | 0.3 | 720 nM | 0.9 | 0.2 | 0.9 | 0.3 | 2 µg/mL | 2 µg/mL | 630 nM | 2 µg/mL | 2650 nM | 2570 nM | 256 µg/mL | 256 µg/mL | 2 µg/mL | selectivity ratio [14]: 0.4; MIC (Staphylococcus aureus [15]): 2 µg/mL; selectivity ratio [16]: 0.3; IC50 at 72 h [17]: 780 nM; IC50 (SW480): 710 nM
8 | CC[C@@H](C(=O)[C@@H](C)[C@@H](O)[C@H](C)[C@@H]1O[C@@H]([C@@H](CC)C(=O)OCCCCCC[P+](c2ccc(OC)cc2)(c2ccc(OC)cc2)c2ccc(OC)cc2)CC[C@@H]1C)[C@H]1O[C@]2(C=C[C@@H](O)[C@]3(CC[C@@](C)([C@H]4CC[C@](O)(CC)[C@H](C)O4)O3)O2)[C@H](C)C[C@@H]1C.[Br-] | 0.7 | 1400 nM | 8 µg/mL | 1 | 1.2 | 1.1 | 920 nM | 0.7 | 0.7 | 1.1 | 0.4 | 8 µg/mL | 4 µg/mL | 600 nM | 8 µg/mL | 600 nM | 810 nM | > 256 µg/mL | > 256 µg/mL | 8 µg/mL | selectivity ratio [14]: 0.5; MIC (Staphylococcus aureus [15]): 4 µg/mL; selectivity ratio [16]: 0.8; IC50 at 72 h [17]: 630 nM; IC50 (SW480): 530 nM
9 | COc1cccc2c1C(=O)c1c(O)c3c(c(O)c1C2=O)C[C@@](O)(C(=O)CO)C[C@@H]3O[C@H]1C[C@H](N)[C@H](O)[C@H](C)O1 [DOXORUBICIN] |  |  |  |  |  |  | 630 nM |  |  |  |  |  |  | 2010 nM |  | 830 nM |  |  |  |  | 

— ChEMBL document CHEMBL6120978, “Anticancer activity of salinomycin quaternary phosphonium salts” (Eur J Med Chem, 2025)
